According to patent USRE47078E1, “Polymorphic forms of N-[4-(trifluoromethyl)benzyl]-4-methoxybutyramide” (Laboratorio Farmaceutico C.T. S.R.L., priority 2007, dated 2018):
Values after ≈ are worked out from the molar mass of the structure shown.

Legend:
[1] = Solubility of the polymorphs at different pH (HPLC assay); format: physicochemical
Method: Both samples of powder (Form A and Form B) were used in order to evaluate the solubility properties of the two polymorphs at different pH.
The two samples were tested in the following pH conditions: • Hydrochloric acid buffer at pH=1.2 • Acetic acid at pH=3.0 • Phosphate buffer at pH=3.0 • Phosphate buffer at pH=4.6 • Phosphate buffer at pH=6.0 • Phosphate buffer at pH=7.4 • Alkaline phosphate buffer at pH=8.0
0.5 g of each samples were dissolved in a glass flask using 100 ml of the appropriate buffer. The two samples were then kept under stirring for 30 minutes. If the samples were completed dissolved, 1 additional gram was added in the flask and stirred for 30 minutes. The procedure was repeated till the presence of undissolved product in the bottom of the flask. After such a dissolution procedure, the samples were stored for 24 hours and then the dissolved amounts of Form A and Form B, respectively, were determined by HPLC assay.

[2] = Thermodynamic stability / interconversion of the polymorphs; format: physicochemical
[3] = tested on: Rat; conditions: compared with GHB, according to EP 0 932 597 B1; cited from earlier work

## COCCCC(=O)NCc1ccc(C(F)(F)F)cc1 [Polymorphic Form B, N-[4-(trifluoromethyl)benzyl]-4-methoxybutyramide]
[1]; Water
  Solubility, After 24 hours: 162.64 µg/mL (≈ 591 µM)
  Solubility, Initial evaluation: 125.44 µg/mL (≈ 456 µM)
[1]; dissolution tests on each polymorph
  Differences in solubility / dissolution properties between the two forms: have not shown differences in the solubility properties
[1]; pH 1.2
  Solubility, After 24 hours: 164.47 µg/mL (≈ 597 µM)
  Solubility, Initial evaluation: 136.12 µg/mL (≈ 494 µM)
[1]; pH 3.0 (acetic acid)
  Solubility, After 24 hours: 164.84 µg/mL (≈ 599 µM)
  Solubility, Initial evaluation: 143.69 µg/mL (≈ 522 µM)
[1]; pH 3.0 (phosphate buffer)
  Solubility, After 24 hours: 156.73 µg/mL (≈ 569 µM)
  Solubility, Initial evaluation: 126.87 µg/mL (≈ 461 µM)
[1]; pH 4.6
  Solubility, After 24 hours: 147.14 µg/mL (≈ 535 µM)
  Solubility, Initial evaluation: 129.35 µg/mL (≈ 470 µM)
[1]; pH 6.0
  Solubility, After 24 hours: 143.2 µg/mL (≈ 520 µM)
  Solubility, Initial evaluation: 125.95 µg/mL (≈ 458 µM)
[1]; pH 6.8
  Solubility, After 24 hours: 146.25 µg/mL (≈ 531 µM)
  Solubility, Initial evaluation: 131.46 µg/mL (≈ 478 µM)
[1]; pH 7.4
  Solubility, After 24 hours: 143.79 µg/mL (≈ 522 µM)
  Solubility, Initial evaluation: 113.60 µg/mL (≈ 413 µM)
[1]; pH 8.0
  Solubility, After 24 hours: 146.25 µg/mL (≈ 531 µM)
  Solubility, Initial evaluation: 130.61 µg/mL (≈ 474 µM)
[2]
  Thermodynamic stability, conversion of one form into the other: thermodynamically stable, with no conversion of one into the other

## COCCCC(=O)NCc1ccc(C(F)(F)F)cc1 [N-[4-(trifluoromethyl)benzyl]-4-methoxybutyramide]
[3]
  Potency and duration of action on motor activity: better than GHB
